Data on 1 substance can be found in paper PMC7958298 (Journal of the American Chemical Society, 2020).

In one series the test system is pre-miRNA-21 stem. Kind of series: BLI binding to pre-miRNA-21 stem missing the hairpin loop. The settings on record: relative to pre-miRNA-21 hairpin, SI Figure 1. (In general: BLI is a label-free optical method that tracks binding on a fibre tip over time.)
For series [1], the system named is hairpin derived from HIV RNA. Kind of series: BLI binding to unrelated hairpin derived from HIV RNA. The settings on record: SI Figure 1.
For the next series, the system named is pre-miRNA-21. Kind of series: Circular dichroism melting of pre-miRNA-21. The settings on record: pre-miRNA-21 alone vs with 39, SI Figure 3. In kind it is physicochemical. On the technique in general: Circular dichroism is widely used to follow secondary structure.

Regarding “Lys-DabG-hAlaA-Arg-Asp-DabA-Leu-hAlaG-Ala-Lys [Compound 39]”, the “reduction of affinity towards the pre-miRNA-21 stem, missing the hairpin loop” value in the series on pre-miRNA-21 stem is listed as “over 50 fold”. For the same substance, the “binding to unrelated hairpin derived from HIV RNA” value in series [1] is “high affinity”. The “shift in melting temperature of pre-miRNA-21 in the presence of peptide” value with pre-miRNA-21 is given as “no significant shift in melting temperature”.
